pIC50: −log10 of the molar value.

Experiment [1] concerns the target T1, NLRP3 inflammasome (Mus musculus, UniProt Q8R4B8). Put plainly: Inhibition of IL-1β production in mouse PBMCs stimulated by LPS + ATP. The format is cell-based. Details: host or cells: mouse PBMCs; mouse bone-marrow derived macrophages; mouse whole blood (C57BL/6 in the ex vivo study). As to conditions: Mouse PBMC, read-out: Geo Av IC50, IL-1β. As for the experimental part:
(§1) Inflammasome activation and whole blood assays were essentially carried out as described earlier. Details can be found in the supplementary information section accompanying this publication. A protocol for blood draws from healthy volunteers and use of the blood in preclinical assays was approved by Western Institutional Review Board, Inc (Puyallup, WA, USA). Informed consent was obtained from each donor prior to the first blood draw.
(§2) Cell viability was determined by addition of an equal volume of CellTiter-Glo® 2.0 reagent (Promega) to the remaining cells/supernatant in each well. Intracellular Caspase-1 activity was measured using the Caspase-Glo® assay (Promega) according to the manufacturer’s instructions. The biochemical capsase-1 assay was conducted at Reaction Biology Corporation (Malvern, USA). Human IL-1β, IL-1α, and TNFα and mouse IL-1β were measured in cell culture supernatants using homogeneous time resolved fluorescence assay kits (HTRF, Cisbio, Codolet, France). Human IL-18 was measured in cell culture supernatants using an ELISA kit (R&D Systems, Minneapolis, MN, USA). Plasma IL-1β concentrations were determined by Quantikine® ELISA (R&D Systems, Minneapolis, MN).
(§3) 4H). MS: m/z 433.1 (M+H+). […]

Experiment [2] has as its target T1, NLRP3 inflammasome. Put plainly: Inhibition of IL-1β production in mouse PBMCs stimulated by LPS + nigericin. As to conditions: Mouse PBMC, read-out: Geo Av IC50, IL-1β. Details: host or cells: mouse PBMCs; mouse bone-marrow derived macrophages; mouse whole blood (C57BL/6 in the ex vivo study). The format is cell-based. As for the experimental part:
as §1, §2, §3

For the next experiment, the target named is T2, caspase-1 (Homo sapiens, UniProt P29466).
T2 construct: Reaction Biology Corporation (assay run there as a service)
T2 sequence (P29466 120-297 limits assumed): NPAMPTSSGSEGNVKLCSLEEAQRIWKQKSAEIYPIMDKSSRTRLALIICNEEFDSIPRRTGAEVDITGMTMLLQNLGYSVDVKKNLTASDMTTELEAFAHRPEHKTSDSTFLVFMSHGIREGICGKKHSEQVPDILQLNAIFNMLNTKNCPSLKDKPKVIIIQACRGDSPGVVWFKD
T2 sequence (P29466 317-404 limits assumed): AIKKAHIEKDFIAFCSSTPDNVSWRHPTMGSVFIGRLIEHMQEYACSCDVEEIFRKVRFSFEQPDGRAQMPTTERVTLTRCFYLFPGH
As to the kind of experiment: Cell-free biochemical caspase-1 assay. As for the experimental part: as §2

A further experiment deals with T3, NLRC4 inflammasome (Mus musculus, UniProt Q3UP24).
T3 construct: host or cells: mouse BMDMs, LPS + transfected flagellin
Put plainly: IL-1β production in mouse BMDMs after NLRC4 activation (LPS + flagellin). The format is cell-based. As to conditions: mBMDMs, concentrations up to 10 µM. As for the experimental part:
as §2, §3
flagellin, prepared in Opt iMEM and combined with Lipofectamine 2000. […] After priming Nlrp3 -/- mBMDMs with 100 ng/mL of LPS for 3- 5 h, cells were exposed to 100 ng/mL L18- MDP and incubated overnight.At the end of the incubation period of the assays above, plates were briefly centri fuged and hal f of the cell culture supern atant remo ved and either analysed i mmediately or stored at - 80°C for subs equent cytokine […]

Experiment [3] has as its system pyroptosis of mouse BMDMs. Put plainly: Inhibition of pyroptotic cell death measured by cellular ATP content (CellTiter-Glo viability) in LPS + nigericin stimulated mouse BMDMs. The experiment is classed as cell-based. The conditions noted are these: Mouse BMDM, read-out: Geo Av IC50, Viability (pyroptosis, cellular ATP content). As for the experimental part: as §2
4H). MS: m/z 433.1 (M+H+).
Inflammasome activation.PBMCs (iXCells Biotechnologies, San Diego, USA) were thawed the day before the assay and seeded in complete medium (RPMI 1640 medium with GlutaMAX, supplemented with an additional 2.5 g/L D-glucose, 10% Fet al Bovine Serum, 100 mM Sodium Pyruvate, 1% Penicillin/Streptomycin, 10 mM HEPES and 0.05 mM β -mercaptoethanol) in polystyrene V-bottom 96-well plates at 5x10^4 cells per well and incubated overnight at 37°C with 5% CO 2. The next day, PBMC media was r eplaced with serum-fr ee media p rior t o the assay. […]

T1 sequence (Q8R4B8 whole entry): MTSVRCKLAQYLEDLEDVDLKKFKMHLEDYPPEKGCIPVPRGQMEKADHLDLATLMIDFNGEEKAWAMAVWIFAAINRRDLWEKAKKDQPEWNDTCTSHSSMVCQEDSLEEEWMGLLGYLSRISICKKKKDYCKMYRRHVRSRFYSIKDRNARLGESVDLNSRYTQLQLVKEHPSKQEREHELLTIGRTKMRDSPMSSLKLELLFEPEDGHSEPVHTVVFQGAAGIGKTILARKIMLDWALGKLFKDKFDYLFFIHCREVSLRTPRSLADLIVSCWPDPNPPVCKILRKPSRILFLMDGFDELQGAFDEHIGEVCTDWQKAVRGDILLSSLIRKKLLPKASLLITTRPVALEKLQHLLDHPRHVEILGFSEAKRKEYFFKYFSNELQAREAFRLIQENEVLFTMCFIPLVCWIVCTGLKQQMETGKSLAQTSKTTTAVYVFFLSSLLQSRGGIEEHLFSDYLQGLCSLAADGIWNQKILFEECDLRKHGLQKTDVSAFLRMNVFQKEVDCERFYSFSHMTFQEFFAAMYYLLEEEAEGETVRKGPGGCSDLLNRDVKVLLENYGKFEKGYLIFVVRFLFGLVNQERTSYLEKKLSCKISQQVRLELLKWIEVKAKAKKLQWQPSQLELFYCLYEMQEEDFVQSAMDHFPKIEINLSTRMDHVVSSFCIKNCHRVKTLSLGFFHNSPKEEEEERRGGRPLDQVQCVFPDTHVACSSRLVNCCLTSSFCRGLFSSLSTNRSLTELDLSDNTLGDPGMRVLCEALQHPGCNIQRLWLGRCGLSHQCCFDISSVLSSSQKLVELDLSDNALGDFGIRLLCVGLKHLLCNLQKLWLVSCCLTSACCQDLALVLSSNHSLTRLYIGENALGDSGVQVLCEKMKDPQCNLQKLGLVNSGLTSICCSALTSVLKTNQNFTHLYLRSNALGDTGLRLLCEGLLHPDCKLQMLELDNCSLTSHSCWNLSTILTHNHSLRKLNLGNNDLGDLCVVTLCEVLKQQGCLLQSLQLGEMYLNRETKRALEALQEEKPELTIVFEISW
T3 sequence (Q3UP24 whole entry): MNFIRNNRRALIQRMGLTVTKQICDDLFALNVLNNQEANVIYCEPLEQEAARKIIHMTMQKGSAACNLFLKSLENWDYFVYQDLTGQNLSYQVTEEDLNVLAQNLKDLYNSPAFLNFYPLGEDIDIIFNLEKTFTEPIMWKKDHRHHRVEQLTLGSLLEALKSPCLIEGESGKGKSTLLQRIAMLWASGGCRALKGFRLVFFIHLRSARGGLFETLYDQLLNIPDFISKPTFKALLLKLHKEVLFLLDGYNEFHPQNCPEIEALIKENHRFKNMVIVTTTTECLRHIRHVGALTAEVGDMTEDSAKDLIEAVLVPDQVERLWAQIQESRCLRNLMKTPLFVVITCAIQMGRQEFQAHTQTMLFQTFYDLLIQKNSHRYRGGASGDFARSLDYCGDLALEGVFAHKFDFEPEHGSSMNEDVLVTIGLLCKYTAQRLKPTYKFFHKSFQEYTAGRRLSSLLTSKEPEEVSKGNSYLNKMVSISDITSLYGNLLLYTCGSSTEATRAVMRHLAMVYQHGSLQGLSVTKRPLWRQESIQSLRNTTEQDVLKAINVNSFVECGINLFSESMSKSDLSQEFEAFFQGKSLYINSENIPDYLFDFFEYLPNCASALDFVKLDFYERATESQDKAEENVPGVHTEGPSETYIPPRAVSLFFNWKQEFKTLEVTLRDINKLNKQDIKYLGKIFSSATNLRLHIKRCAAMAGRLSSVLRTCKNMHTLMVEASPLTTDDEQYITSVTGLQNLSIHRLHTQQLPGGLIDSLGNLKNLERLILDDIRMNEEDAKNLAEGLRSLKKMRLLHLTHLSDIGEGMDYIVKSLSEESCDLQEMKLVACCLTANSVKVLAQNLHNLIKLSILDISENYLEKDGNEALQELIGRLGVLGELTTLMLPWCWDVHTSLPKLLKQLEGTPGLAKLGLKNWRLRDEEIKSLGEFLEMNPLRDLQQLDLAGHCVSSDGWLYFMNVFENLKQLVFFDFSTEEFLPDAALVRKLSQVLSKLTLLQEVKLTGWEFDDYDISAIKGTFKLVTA

`CO[C@@H]1COc2c(S(=O)(=O)NC(=O)Nc3c4c(cc5c3CCC5)CCC4)cnn2C1` [JT002]: the pIC50 was 8.15 on NLRP3 inflammasome [1], 7.60 on NLRP3 inflammasome [2] and 8.15 in experiment [3]. Moreover, the “direct inhibition of caspase-1 enzymatic activity” value on caspase-1 is listed as “not a direct inhibitor of caspase-1 enzymatic activity”. Moreover, the “inhibition of IL-1β production after NLRC4 activation” value on NLRC4 inflammasome was “no inhibition of IL-1β production”.

These data come from PMC10439952, “JT002, a small molecule inhibitor of the NLRP3 inflammasome for the treatment of autoinflammatory disorders” (Scientific Reports, 2023).
